± gives the expanded uncertainty stated by the source.
conditions: 298.15 K; 101.33 kPa; Liquid

In order of falling mass density:
1. BrCBr [dibromomethane]  2478.36 ± 3.1 kg/m3
2. ClCBr [bromochloromethane]  1924.55 ± 1.9 kg/m3
3. ClCCBr [1-bromo-2-chloroethane]  1727.01 ± 2.2 kg/m3
4. ClCCCl [1,2-dichloroethane]  1246.34 ± 0.6 kg/m3
5. CCCO [propan-1-ol]  799.74 ± 0.49 kg/m3

Reference: the NIST ThermoML archive (doi:10.1016/j.jct.2004.07.012)
